# Laboratory results taken from patent publication US20230047208A1, “RNA Splicing Modulation” (The General Hospital Corporation, priority 2020, published 2023).
# Tested on: wildtype (WT) human fibroblast cell lines
# Test: Transcriptome-wide splicing by RNA sequencing (RNASeq), exon triplet PSI change
# Assay type: cell-based
# Parameters: key to Effect: Exclusion; Inclusion; Unchanged
# Description: FIG. 2A provides a representation of an exon triplet. Exon U is upstream of Exon X, which is upstream of Exon D. R1, R2 and R3 represent RNA sequencing (RNASeq) reads spanning the regions between two adjacent exons. UI1, I1X, XI2 and I2D are four regions flanking the four splice sites of the exon-triplet. Each flanking region consists of 25 exonic base pairs and 75 intronic base pairs.
# FIG. 2B provides a volcano plot showing the ψ (PSI: Percent Spliced-In) changes in splicing after treatment with Compound (I). Each dot represents one of the 161,097 expressed exon triplets in human fibroblasts. The x axis represents the ψ changes after treatment and the y axis represents the False Discovery Rate (FDR) (log 10 transformed). […] The horizontal dashed line indicates an FDR of 0.1. The dots on the right side of the right vertical dashed line and above the horizontal dashed line represent the exon-triplets with an increase for Exon X inclusion (Δψ≥0.1 and FDR<0.1) while the dots on left side of the left vertical dashed line and above the horizontal dashed line represent an increase for Exon X exclusion (Δψ≤−0.1 and FDR<0.1). Black dots in-between the two vertical dashed lines represent exon-triplets unchanged from the treatment.
# In some aspects, analysis is performed on data derived from the assay to measure the magnitude of splicing to determine the amount of exons spliced into an mRNA transcript that is produced in the presence of Compound (I) relative to the amount in the absence of Compound (I) or presence of a negative control. In a preferred aspect, the method utilized is calculation of change in Percent Spliced In (ΔPSI). […] The ΔPSI value is derived from the formula: […]
# The values for “a” and “b” represent the number of reads supporting the probability for potential inclusion or exclusion of an exon in an RNA transcript. The “a” value is derived from the number of reads within an exon triplet covering, in 5′ to 3′ order: the last few bases (>1 nucleotide) of an upstream exon operably linked to the first few bases (>1 nucleotide) of a middle exon. The “b” value is derived from the number of reads within an exon triplet covering, in 5′ to 3′ order: the last few bases (>1 nucleotide) of the middle exon operably linked to the first few bases (>1 nucleotide) of a downstream exon. The number of reads will indicate whether the splice junction of a middle exon has been identified as potentially having a CNN Motif(s) by the CNN Model described herein, wherein the inclusion or exclusion of the middle exon may be modulated in the presence of Compound (I) to produce one or more mature RNA isoforms from the gene transcript. The value for “c” represents the number of reads supporting the exclusion of the middle exon.
# The effect on splicing modulation and corresponding splice differences toward exon inclusion or exclusion was determined by counting the RNASeq reads covering two splice junctions of exon triplets (three consecutive exons: Exon U, Exon X, Exon D) and the corresponding intervening introns, then comparing the change in Percent Spliced In (ΔPSI or Δψ) of the middle exon (Exon X) after treatment (as shown in FIG. 2A)^52,53. 934 exon triplets were identified showing differential middle exon inclusion or exclusion in response to Compound (I) treatment. Of these, 254 were exon inclusion events (Δψ≥0.1 and FDR<0.1) and 680 were exon exclusion events (Δψ≤−0.1 and FDR<0.1) (as shown in FIG. 2B). […] The splicing results were evaluated by RT-PCR in independent replicate experiments, confirming all the calculated Δψ values. […]
structure (smiles),measurement,setting,value
"Clc1nc(NCc2ccncc2)c2cc[nH]c2n1 [Compound (I), 2-chloro-N-(pyridin-4-ylmethyl)-7H-pyrrolo[2,3-d]pyrimidin-4-amine]","splicing changes, share of all expressed triplets","934 out of 161,097 expressed triplets",0.58%
same,Effect,"Exc/Inc/Unc of the middle exon of the exon triplet, six WT human fibroblast cell lines treated for seven days vs DMSO, gene LENG8",Exc
same,Effect,"Exc/Inc/Unc of the middle exon of the exon triplet, six WT human fibroblast cell lines treated for seven days vs DMSO, gene LGALS8",Inc
same,Effect,"Exc/Inc/Unc of the middle exon of the exon triplet, six WT human fibroblast cell lines treated for seven days vs DMSO, gene LRP12",Unc
same,Effect,MYO1B Exon 192265475-192265561,Inc
same,T-PSI,MYO1B Exon 192265475-192265561,0.296
same,ΔPSI,MYO1B Exon 192265475-192265561,0.128
same,Effect,MYO1B Exon 192267358-192267444,Inc
same,T-PSI,MYO1B Exon 192267358-192267444,0.483
same,ΔPSI,MYO1B Exon 192267358-192267444,0.190
same,Effect,MYO5A Exon 52630007-52630081,Exc
same,T-PSI,MYO5A Exon 52630007-52630081,0.063
same,ΔPSI,MYO5A Exon 52630007-52630081,−0.118
same,Effect,MYO5A Exon 52635314-52635394,Unc
same,T-PSI,MYO5A Exon 52635314-52635394,0.617
same,ΔPSI,MYO5A Exon 52635314-52635394,0.007
same,Effect,MYO5A Exon 52641015-52641023,Inc
same,T-PSI,MYO5A Exon 52641015-52641023,0.953
same,ΔPSI,MYO5A Exon 52641015-52641023,0.130
same,Effect,MYO18A Exon 27464034-27464102,Unc
same,T-PSI,MYO18A Exon 27464034-27464102,0.330
same,ΔPSI,MYO18A Exon 27464034-27464102,0.005
same,Effect,MYO19 Exon 34870956-34871025,Exc
same,T-PSI,MYO19 Exon 34870956-34871025,0.870
same,ΔPSI,MYO19 Exon 34870956-34871025,−0.109
same,Effect,N6AMT2 Exon 21311862-21311944,Unc
same,T-PSI,N6AMT2 Exon 21311862-21311944,0.755
same,ΔPSI,N6AMT2 Exon 21311862-21311944,0.010
same,Effect,NABP1 Exon 192547218-192547321,Inc
same,T-PSI,NABP1 Exon 192547218-192547321,0.729
same,ΔPSI,NABP1 Exon 192547218-192547321,0.198
same,Effect,NADK2 Exon 36208727-36208792,Exc
same,T-PSI,NADK2 Exon 36208727-36208792,0.005
same,ΔPSI,NADK2 Exon 36208727-36208792,−0.102
same,Effect,NAE1 Exon 66860571-66860683,Exc
same,T-PSI,NAE1 Exon 66860571-66860683,0.596
same,ΔPSI,NAE1 Exon 66860571-66860683,−0.315
same,Effect,NAE1 Exon 66860580-66860683,Exc
same,T-PSI,NAE1 Exon 66860580-66860683,0.859
same,ΔPSI,NAE1 Exon 66860580-66860683,−0.115
same,Effect,NBN Exon 90994181-90994230,Exc
same,T-PSI,NBN Exon 90994181-90994230,0.017
same,ΔPSI,NBN Exon 90994181-90994230,−0.156
same,Effect,NCK2 Exon 106497784-106498505,Unc
same,T-PSI,NCK2 Exon 106497784-106498505,0.586
same,ΔPSI,NCK2 Exon 106497784-106498505,−0.008
same,Effect,NCOR2 Exon 124811955-124812179,Unc
same,T-PSI,NCOR2 Exon 124811955-124812179,0.657
same,ΔPSI,NCOR2 Exon 124811955-124812179,0.000
same,Effect,NCOR2 Exon 124812093-124812179,Unc
same,T-PSI,NCOR2 Exon 124812093-124812179,0.681
same,ΔPSI,NCOR2 Exon 124812093-124812179,−0.001
same,Effect,NEDD1 Exon 97301382-97301634,Unc
same,T-PSI,NEDD1 Exon 97301382-97301634,0.826
same,ΔPSI,NEDD1 Exon 97301382-97301634,−0.003
same,Effect,NEDD1 Exon 97301480-97301634,Unc
same,T-PSI,NEDD1 Exon 97301480-97301634,0.878
same,ΔPSI,NEDD1 Exon 97301480-97301634,0.008
same,Effect,NEK1 Exon 170508710-170508764,Exc
same,T-PSI,NEK1 Exon 170508710-170508764,0.830
same,ΔPSI,NEK1 Exon 170508710-170508764,−0.152
same,Effect,NEO1 Exon 73567033-73567065,Inc
same,T-PSI,NEO1 Exon 73567033-73567065,0.149
same,ΔPSI,NEO1 Exon 73567033-73567065,0.120
same,Effect,NEXN Exon 78390873-78390914,Exc
same,T-PSI,NEXN Exon 78390873-78390914,0.654
same,ΔPSI,NEXN Exon 78390873-78390914,−0.138
same,Effect,NF2 Exon 30079009-30079053,Inc
same,T-PSI,NF2 Exon 30079009-30079053,0.900
same,ΔPSI,NF2 Exon 30079009-30079053,0.167
same,Effect,NF2 Exon 30079009-30079068,Inc
same,T-PSI,NF2 Exon 30079009-30079068,0.807
same,ΔPSI,NF2 Exon 30079009-30079068,0.244
same,Effect,NFE2L1 Exon 46134394-46134483,Exc
same,T-PSI,NFE2L1 Exon 46134394-46134483,0.327
same,ΔPSI,NFE2L1 Exon 46134394-46134483,−0.156
